Assay results reported in PubChem BioAssay AID1919000 (Molecular Pharmacology Branch, DTP, NCI, 2023).

System: 653999-131-R-J2-PDC complex spheroids, growth % test/control
Experiment: Anticancer human tumor 653999-131-R-J2-PDC patient-derived lung adenocarcinoma cell line growth inhibition [AhR]
Settings: for IC50: curve of first compound; for viability, T/C: stronger effect = lower value
Outline: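 Agents were dosed in half-log steps down from roughly clinical Cmax, or from 10 microM where Cmax was unknown, alone and with AhR antagonists. Read-out: percent test/control growth of tumor spheroids containing HUVEC and MSC stromal cells.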

[1] = second compound 0.1 µM, first compound 0.0316 µM
[2] = second compound 0.1 µM, first compound 0.1 µM
[3] = second compound 0.316 µM, first compound 0.0316 µM
[4] = second compound 0.316 µM, first compound 0.1 µM
[5] = second compound 1 µM, first compound 0.0316 µM
[6] = second compound 1 µM, first compound 0.1 µM
[7] = second compound 3.16 µM, first compound 0.0316 µM
[8] = second compound 3.16 µM, first compound 0.1 µM
[9] = second compound 10 µM, first compound 0.0316 µM
[10] = second compound 10 µM, first compound 0.1 µM
[11] = second compound 0.1 µM, first compound 0.316 µM
[12] = second compound 0.1 µM, first compound 1 µM
[13] = second compound 0.1 µM, first compound 3.16 µM
[14] = second compound 0.1 µM, first compound 10 µM
[15] = second compound 0.316 µM, first compound 0.316 µM
[16] = second compound 0.316 µM, first compound 1 µM
[17] = second compound 0.316 µM, first compound 3.16 µM
[18] = second compound 0.316 µM, first compound 10 µM
[19] = second compound 1 µM, first compound 0.316 µM
[20] = second compound 1 µM, first compound 1 µM
[21] = second compound 1 µM, first compound 3.16 µM
[22] = second compound 1 µM, first compound 10 µM
[23] = second compound 3.16 µM, first compound 0.316 µM
[24] = second compound 3.16 µM, first compound 1 µM
[25] = second compound 3.16 µM, first compound 3.16 µM
[26] = second compound 3.16 µM, first compound 10 µM
[27] = second compound 10 µM, first compound 0.316 µM
[28] = second compound 10 µM, first compound 1 µM
[29] = second compound 10 µM, first compound 3.16 µM
[30] = second compound 10 µM, first compound 10 µM
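Further: spheroids exposed to agents for seven days.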
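Wherever viability, T/C is given: 100% = DMSO vehicle control viability.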

With `CCN(c1cc(-c2ccc(CN3CCOCC3)cc2)cc(C(=O)NCc2c(C)cc(C)[nH]c2=O)c1C)C1CCOCC1` + Cc1cncc(-c2nc(NCCc3c[nH]c4ccccc34)c3ncn(C(C)C)c3n2)c1 the IC50 (second compound 0.1 µM) was > 3 µM, the IC50 (second compound 0.316 µM) was > 3 µM and the IC50 (second compound 1 µM) was > 3 µM. The IC50 (second compound 3.16 µM) was > 3 µM, the IC50 (second compound 10 µM) was 0.165 µM and the viability, T/C (second compound 0.1 µM, first compound 0.00949 µM) was 96.7%. For the same compound, the viability, T/C (second compound 0.1 µM, first compound 0.03 µM) was 105%, the viability, T/C (second compound 0.1 µM, first compound 0.0949 µM) was 104% and the viability, T/C (second compound 0.1 µM, first compound 0.3 µM) was 94.6%. The viability, T/C (second compound 0.1 µM, first compound 0.949 µM) was 97.9%, the viability, T/C (second compound 0.1 µM, first compound 3 µM) was 102% and the viability, T/C (second compound 0.316 µM, first compound 0.00949 µM) was 121%. The viability, T/C (second compound 0.316 µM, first compound 0.03 µM) was 122%, the viability, T/C (second compound 0.316 µM, first compound 0.0949 µM) was 106% and the viability, T/C (second compound 0.316 µM, first compound 0.3 µM) was 99.8%. For the same compound, the viability, T/C (second compound 0.316 µM, first compound 0.949 µM) was 104%, the viability, T/C (second compound 0.316 µM, first compound 3 µM) was 103% and the viability, T/C (second compound 1 µM, first compound 0.00949 µM) was 99.7%. It also gave a viability, T/C (second compound 1 µM, first compound 0.03 µM) of 116%, a viability, T/C (second compound 1 µM, first compound 0.0949 µM) of 108% and a viability, T/C (second compound 1 µM, first compound 0.3 µM) of 114%. It also gave a viability, T/C (second compound 1 µM, first compound 0.949 µM) of 104%, a viability, T/C (second compound 1 µM, first compound 3 µM) of 100% and a viability, T/C (second compound 3.16 µM, first compound 0.00949 µM) of 105%. For the same compound, the viability, T/C (second compound 3.16 µM, first compound 0.03 µM) was 116%, the viability, T/C (second compound 3.16 µM, first compound 0.0949 µM) was 104% and the viability, T/C (second compound 3.16 µM, first compound 0.3 µM) was 96.2%. It also gave a viability, T/C (second compound 3.16 µM, first compound 0.949 µM) of 98.8%, a viability, T/C (second compound 3.16 µM, first compound 3 µM) of 113% and a viability, T/C (second compound 10 µM, first compound 0.00949 µM) of 62%. The viability, T/C (second compound 10 µM, first compound 0.03 µM) was 53.3%, the viability, T/C (second compound 10 µM, first compound 0.0949 µM) was 51.6% and the viability, T/C (second compound 10 µM, first compound 0.3 µM) was 50.6%. The viability, T/C (second compound 10 µM, first compound 0.949 µM) was 37.8% and the viability, T/C (second compound 10 µM, first compound 3 µM) was 28.6%.

With `Cn1ncnc1C1c2n[nH]c(=O)c3cc(F)cc(c23)NC1c1ccc(F)cc1` (stereo not given) + Cc1ccccc1N=Nc1ccc(NC(=O)c2ccnn2C)c(C)c1 the IC50 (second compound 0.1 µM) was > 0.1 µM, the IC50 (second compound 0.316 µM) was > 0.1 µM and the IC50 (second compound 1 µM) was > 0.1 µM. The IC50 (second compound 3.16 µM) was > 0.1 µM, the IC50 (second compound 10 µM) was > 0.1 µM and the viability, T/C (second compound 0.1 µM, first compound 0.000316 µM) was 106%. For the same compound, the viability, T/C (second compound 0.1 µM, first compound 0.001 µM) was 84.6%, the viability, T/C (second compound 0.1 µM, first compound 0.00316 µM) was 102% and the viability, T/C (second compound 0.1 µM, first compound 0.01 µM) was 92.3%. It also gave a viability, T/C [1] of 99.9%, a viability, T/C [2] of 98% and a viability, T/C (second compound 0.316 µM, first compound 0.000316 µM) of 94.3%. For the same compound, the viability, T/C (second compound 0.316 µM, first compound 0.001 µM) was 111%, the viability, T/C (second compound 0.316 µM, first compound 0.00316 µM) was 104% and the viability, T/C (second compound 0.316 µM, first compound 0.01 µM) was 95%. For the same compound, the viability, T/C [3] was 91.5%, the viability, T/C [4] was 92.8% and the viability, T/C (second compound 1 µM, first compound 0.000316 µM) was 103%. For the same compound, the viability, T/C (second compound 1 µM, first compound 0.001 µM) was 96.7%, the viability, T/C (second compound 1 µM, first compound 0.00316 µM) was 104% and the viability, T/C (second compound 1 µM, first compound 0.01 µM) was 108%. The viability, T/C [5] was 93.3%, the viability, T/C [6] was 95.6% and the viability, T/C (second compound 3.16 µM, first compound 0.000316 µM) was 93.4%. The viability, T/C (second compound 3.16 µM, first compound 0.001 µM) was 105%, the viability, T/C (second compound 3.16 µM, first compound 0.00316 µM) was 106% and the viability, T/C (second compound 3.16 µM, first compound 0.01 µM) was 94.9%. The viability, T/C [7] was 101%, the viability, T/C [8] was 103% and the viability, T/C (second compound 10 µM, first compound 0.000316 µM) was 86.2%. For the same compound, the viability, T/C (second compound 10 µM, first compound 0.001 µM) was 104%, the viability, T/C (second compound 10 µM, first compound 0.00316 µM) was 106% and the viability, T/C (second compound 10 µM, first compound 0.01 µM) was 95%. For the same compound, the viability, T/C [9] was 109% and the viability, T/C [10] was 87.3%.

Work on `Nc1ccn(C2OC(CO)C(O)C2(F)F)c(=O)n1` (stereo not given) + Cc1cncc(-c2nc(NCCc3c[nH]c4ccccc34)c3ncn(C(C)C)c3n2)c1 yielded an IC50 (second compound 0.1 µM) of 0.211 µM, an IC50 (second compound 0.316 µM) of 0.222 µM and an IC50 (second compound 1 µM) of 0.378 µM. For the same compound, the IC50 (second compound 3.16 µM) was 0.554 µM, the IC50 (second compound 10 µM) was 0.166 µM and the viability, T/C [1] was 67.8%. It also gave a viability, T/C [2] of 57.9%, a viability, T/C [11] of 45.5% and a viability, T/C [12] of 38.2%. It also gave a viability, T/C [13] of 34.4%, a viability, T/C [14] of 33.4% and a viability, T/C [3] of 70.9%. It also gave a viability, T/C [4] of 60.1%, a viability, T/C [15] of 45.5% and a viability, T/C [16] of 38.4%. It also gave a viability, T/C [17] of 38.5%, a viability, T/C [18] of 35.4% and a viability, T/C [5] of 80.1%. For the same compound, the viability, T/C [6] was 66.8%, the viability, T/C [19] was 50.1% and the viability, T/C [20] was 42.4%. For the same compound, the viability, T/C [21] was 38.5%, the viability, T/C [22] was 33.8% and the viability, T/C [7] was 82.4%. It also gave a viability, T/C [8] of 70%, a viability, T/C [23] of 56.5% and a viability, T/C [24] of 43.5%. It also gave a viability, T/C [25] of 39.6%, a viability, T/C [26] of 41.9% and a viability, T/C [9] of 61%. It also gave a viability, T/C [10] of 55.8%, a viability, T/C [27] of 42.4% and a viability, T/C [28] of 43.4%. It also gave a viability, T/C [29] of 33.3% and a viability, T/C [30] of 33.2%.

`O=C(C=Cc1cccc(S(=O)(=O)Nc2ccccc2)c1)NO` + CC(CO)NC(=O)c1cc(-c2ccc(Cl)cc2)nn(-c2cnn(C)c2)c1=O gave an IC50 (second compound 0.1 µM) of 3.73 µM, an IC50 (second compound 0.316 µM) of 3.66 µM and an IC50 (second compound 1 µM) of 4.13 µM. It also gave an IC50 (second compound 3.16 µM) of 3.52 µM, an IC50 (second compound 10 µM) of 3.64 µM and a viability, T/C [1] of 102%. The viability, T/C [2] was 102%, the viability, T/C [11] was 100% and the viability, T/C [12] was 91.8%. The viability, T/C [13] was 57.3%, the viability, T/C [14] was 6.62% and the viability, T/C [3] was 109%. It also gave a viability, T/C [4] of 117%, a viability, T/C [15] of 95.9% and a viability, T/C [16] of 96.3%. For the same compound, the viability, T/C [17] was 55%, the viability, T/C [18] was 7.7% and the viability, T/C [5] was 108%. For the same compound, the viability, T/C [6] was 104%, the viability, T/C [19] was 114% and the viability, T/C [20] was 98.5%. It also gave a viability, T/C [21] of 63.4%, a viability, T/C [22] of 6.59% and a viability, T/C [7] of 107%. For the same compound, the viability, T/C [8] was 114%, the viability, T/C [23] was 105% and the viability, T/C [24] was 90.2%. It also gave a viability, T/C [25] of 54.3%, a viability, T/C [26] of 10.5% and a viability, T/C [9] of 107%. The viability, T/C [10] was 111%, the viability, T/C [27] was 105% and the viability, T/C [28] was 100%. It also gave a viability, T/C [29] of 56.2% and a viability, T/C [30] of 4.99%.

For `O=C(c1cc(Cc2n[nH]c(=O)c3ccccc23)ccc1F)N1CCN(C(=O)C2CC2)CC1` + Cc1cncc(-c2nc(NCCc3c[nH]c4ccccc34)c3ncn(C(C)C)c3n2)c1, the IC50 (second compound 0.1 µM) was > 10 µM, the IC50 (second compound 0.316 µM) was > 10 µM and the IC50 (second compound 1 µM) was > 10 µM. For the same compound, the IC50 (second compound 3.16 µM) was > 10 µM, the IC50 (second compound 10 µM) was 3.01 µM and the viability, T/C [1] was 99.2%. It also gave a viability, T/C [2] of 101%, a viability, T/C [11] of 92.2% and a viability, T/C [12] of 94%. For the same compound, the viability, T/C [13] was 97.7%, the viability, T/C [14] was 79.3% and the viability, T/C [3] was 96.2%. The viability, T/C [4] was 106%, the viability, T/C [15] was 97.1% and the viability, T/C [16] was 102%. The viability, T/C [17] was 91.5%, the viability, T/C [18] was 86.3% and the viability, T/C [5] was 108%. For the same compound, the viability, T/C [6] was 114%, the viability, T/C [19] was 112% and the viability, T/C [20] was 103%. For the same compound, the viability, T/C [21] was 96.9%, the viability, T/C [22] was 91.3% and the viability, T/C [7] was 102%. It also gave a viability, T/C [8] of 109%, a viability, T/C [23] of 112% and a viability, T/C [24] of 114%. The viability, T/C [25] was 101%, the viability, T/C [26] was 91.3% and the viability, T/C [9] was 61.2%. For the same compound, the viability, T/C [10] was 61.1%, the viability, T/C [27] was 55.1% and the viability, T/C [28] was 55.5%. The viability, T/C [29] was 49.3% and the viability, T/C [30] was 44.7%.
